Data taken from patent US8987195B2 (priority 2012, dated 2015).

Molecular target: HCV NS3/4A protease genotype 1b (Hepatitis C virus genotype 1b, UniProt P26663)
Experiment: HCV NS3/4A protease time-resolved fluorescence (TRF) assay, Ki against genotype 1b
Format: biochemical
Details: IC50 [gt-1b] (nM), NS3/4A genotype 1b, enzyme 0.2 nM
Description: Measuring NS3/4A Inhibitory Activity (Ki) Against Genotype 1b, Against A156T Mutants and Against Genotype 3a
One assay for measuring inhibitory activity is HCV NS3 protease time-resolved fluorescence (TRF) assay as described below and in Mao et al., Anal. Biochem. 373:1-8, 2008 and International Patent Application Publication WO 2006/102087. A NS3 protease assay can be performed, for example, in a final volume of 20 μl assay buffer containing 50 mM HEPES, pH 7.5, 150 mM NaCl, 15% glycerol, 0.15% TRITON X-100, 10 mM DTT, and 0.1% PEG 8000. NS3 and NS4A protease is pre-incubated with various concentrations of inhibitors in DMSO for 30 min. The reaction is initiated by adding the TRF peptide substrate (final concentration 25 nM). NS3 mediated hydrolysis of the substrate was run for 2.5 hours at room temperature. Product fluorescence is detected using A Pherastar Plus plate reader (BMG) or Envision (Perkin Elmer Life and Analytical Sciences with excitation at 340 nm and emission at 615 nm using the appropriate delay time optimized for the europium fluorescence probe. Testing concentrations of different enzyme forms are selected to result in a signal to background ratio (S/B) of 10-30. IC50 values are derived using a standard four-parameter fit to the data. Ki values are derived from IC50 values using the following formula, IC50=Ki(1+[S]/KM), Eqn (1), where [S] is the concentration of substrate peptide in the reaction and KM is the Michaelis constant. See P. Gallinari et al., 38 BIOCHEM. 5620-32 (1999); P. Gallinari et al., 72 J. VIROL. 6758-69 (1998); M. Taliani et al., 240 ANAL. BIOCHEM. 60-67 (1996); Mao et al., Analytical Biochemistry 373: 1-8, 2008.
The assay described above was run against genotype 1b at a concentration of 0.2 nM, against A156T mutant strains at a concentration of 0.4 nM, and against genotype 3a at a concentration of 0.025 nM.

Question: How did the IC50 turn out when `Cc1nc2ccc(OC(F)(F)F)cc2c2c1O[C@@]1(C[C@H]3C(=O)N[C@]4(C(=O)NS(=O)(=O)C5(C)CC5)C[C@H]4/C=C\CCCCC[C@H](NC(=O)OC(C)(C)C)C(=O)N3C1)CC2(F)F` [Example 220, tert-butyl [(2S,6S,12Z,13aS,14aR,16aS)-1′,1′-difluoro-5′-methyl-14a-{[(1-methylcyclopropyl)sulfonyl]carbamoyl}-5,16-dioxo-9′-(trifluoromethoxy)-1,1′,2′,5,6,7,8,9,10,11,13a,14,14a,15,16,16a-hexadecahydrospiro[cyclopropa[e]pyrrolo[1,2-a][1,4]diazacyclopentadecine-2,3′-pyrano[2,3-c]quinolin]-6-yl]carbamate] was run?
Answer: 0.033 nM

Question: For `COc1ccc2nc(C3CC3)c3c(c2c1)C(F)(F)C[C@]1(C[C@H]2C(=O)N[C@]4(C(=O)NS(=O)(=O)C5(C)CC5)C[C@H]4/C=C\CCCCC[C@H](NC(=O)OC4CCCC4)C(=O)N2C1)O3` [Example 247, cyclopentyl [(2S,6S,12Z,13aS,14aR,16aS)-5′-cyclopropyl-1′,1′-difluoro-9′-methoxy-14a-{[(1-methylcyclopropyl)sulfonyl]carbamoyl}-5,16-dioxo-1,1′,2′,5,6,7,8,9,10,11,13a,14,14a,15,16,16a-hexadecahydrospiro[cyclopropa[e]pyrrolo[1,2-a][1,4]diazacyclopentadecine-2,3′-pyrano[2,3-c]quinolin]-6-yl]carbamate], which IC50 is on record?
Answer: 0.013 nM

Question: For `Cc1nc2ccc(C(F)(F)F)cc2c2c1O[C@]1(CC2)C[C@H]2C(=O)N[C@]3(C(=O)NS(=O)(=O)C4(C)CC4)C[C@H]3/C=C\CCCCC[C@H](NC(=O)OCC(C)C)C(=O)N2C1` [Example 253, 2-methylpropyl [(2R,6S,12Z,13aS,14aR,16aS)-5′-methyl-14a-{[(1-methylcyclopropyl)sulfonyl]carbamoyl}-5,16-dioxo-9′-(trifluoromethyl)-1,1′,2′,5,6,7,8,9,10,11,13a,14,14a,15,16,16a-hexadecahydrospiro[cyclopropa[e]pyrrolo[1,2-a][1,4]diazacyclopentadecine-2,3′-pyrano[2,3-c]quinolin]-6-yl]carbamate], which IC50 is on record?
Answer: 0.014 nM

Same assay, conditions: IC50 [gt-1b] (nM), NS3/4A genotype 1b, enzyme 0.2 nM; K+ salt

Question: Which IC50 does the source give for `COc1ccc2nc(C)c3c(c2c1)CC[C@]1(C[C@H]2C(=O)N[C@]4(C(=O)NS(=O)(=O)C5(C)CC5)C[C@H]4/C=C\CCCCC[C@H](NC(=O)O[C@H](C)C(C)C)C(=O)N2C1)O3` [Example 214, (2R)-3-methylbutan-2-yl [(2R,6S,12Z,13aS,14aR,16aS)-9′-methoxy-5′-methyl-14a-{[(1-methylcyclopropyl)sulfonyl]carbamoyl}-5,16-dioxo-1,1′,2′,5,6,7,8,9,10,11,13a,14,14a,15,16,16a-hexadecahydrospiro[cyclopropa[e]pyrrolo[1,2-a][1,4]diazacyclopentadecine-2,3′-pyrano[2,3-c]quinolin]-6-yl]carbamate] here?
Answer: 0.005 nM

Question: For `COc1ccc2nc(C)c3c(c2c1)CC[C@]1(C[C@H]2C(=O)N[C@]4(C(=O)NS(=O)(=O)C5(C)CC5)C[C@H]4/C=C\CCCCC[C@H](NC(=O)O[C@@H](C)C(C)C)C(=O)N2C1)O3` [Example 215, (2S)-3-methylbutan-2-yl [(2R,6S,12Z,13aS,14aR,16aS)-9′-methoxy-5′-methyl-14a-{[(1-methylcyclopropyl)sulfonyl]carbamoyl}-5,16-dioxo-1,1′,2′,5,6,7,8,9,10,11,13a,14,14a,15,16,16a-hexadecahydrospiro[cyclopropa[e]pyrrolo[1,2-a][1,4]diazacyclopentadecine-2,3′-pyrano[2,3-c]quinolin]-6-yl]carbamate], which IC50 is on record?
Answer: 0.005 nM

Same assay, conditions: IC50 [gt-1b], NS3/4A protease TRF assay, genotype 1b enzyme 0.2 nM

Question: With `Cc1ccc2nc(C(F)(F)F)c3c(c2c1)CC[C@]1(C[C@H]2C(=O)N[C@]4(C(=O)NS(=O)(=O)C5(C)CC5)C[C@H]4/C=C\CCCCC[C@H](NC(=O)OCC(C)(C)C)C(=O)N2C1)O3` [Example 391, 2,2-dimethylpropyl [(2R,6S,12Z,13aS,14aR,16aS)-9′-methyl-14a-{[(1-methylcyclopropyl)sulfonyl]carbamoyl}-5,16-dioxo-5′-(trifluoromethyl)-1,1′,2′,5,6,7,8,9,10,11,13a,14,14a,15,16,16a-hexadecahydrospiro[cyclopropa[e]pyrrolo[1,2-a][1,4]diazacyclopentadecine-2,3′-pyrano[2,3-c]quinolin]-6-yl]carbamate] as the compound, how does the IC50 read?
Answer: 0.026 nM

Question: With `Cc1ccc2nc(C(F)(F)F)c3c(c2c1)CC[C@]1(C[C@H]2C(=O)N[C@]4(C(=O)NS(=O)(=O)C5(C)CC5)C[C@H]4/C=C\CCCCC[C@H](NC(=O)OC4CCCC4)C(=O)N2C1)O3` [Example 392, cyclopentyl [(2R,6S,12Z,13aS,14aR,16aS)-9′-methyl-14a-{[(1-methylcyclopropyl)sulfonyl]carbamoyl}-5,16-dioxo-5′-(trifluoromethyl)-1,1′,2′,5,6,7,8,9,10,11,13a,14,14a,15,16,16a-hexadecahydrospiro[cyclopropa[e]pyrrolo[1,2-a][1,4]diazacyclopentadecine-2,3′-pyrano[2,3-c]quinolin]-6-yl]carbamate] as the compound, how does the IC50 read?
Answer: 0.014 nM

Question: With `Cc1ccc2nc(C(F)(F)F)c3c(c2c1)CC[C@]1(C[C@H]2C(=O)N[C@]4(C(=O)NS(=O)(=O)C5(C)CC5)C[C@H]4/C=C\CCCCC[C@H](NC(=O)OC(C)(C)C(F)(F)F)C(=O)N2C1)O3` [Example 393, 1,1,1-trifluoro-2-methylpropan-2-yl [(2R,6S,12Z,13aS,14aR,16aS)-9′-methyl-14a-{[(1-methylcyclopropyl)sulfonyl]carbamoyl}-5,16-dioxo-5′-(trifluoromethyl)-1,1′,2′,5,6,7,8,9,10,11,13a,14,14a,15,16,16a-hexadecahydrospiro[cyclopropa[e]pyrrolo[1,2-a][1,4]diazacyclopentadecine-2,3′-pyrano[2,3-c]quinolin]-6-yl]carbamate] as the compound, how does the IC50 read?
Answer: 0.026 nM

Question: How did the IC50 turn out when `Cc1nc2ccccc2c2c1O[C@]1(CC2)C[C@H]2C(=O)N[C@]3(C(=O)NS(=O)(=O)C4(C)CC4)C[C@H]3/C=C\CCCCC[C@H](Nc3nc(C4CC4)no3)C(=O)N2C1` [Example 394, (2R,6S,12Z,13aS,14aR,16aS)-6-[(3-cyclopropyl-1,2,4-oxadiazol-5-yl)amino]-5′-methyl-N-[(1-methylcyclopropyl)sulfonyl]-5,16-dioxo-1,1′,2′,6,7,8,9,10,11,13a,14,15,16,16a-tetradecahydrospiro[cyclopropa[e]pyrrolo[1,2-a][1,4]diazacyclopentadecine-2,3′-pyrano[2,3-c]quinoline]-14a(5H)-carboxamide] was run?
Answer: 0.057 nM

Question: With `Cc1ccc2nc(C(F)(F)F)c3c(c2c1)CC[C@]1(C[C@H]2C(=O)N[C@]4(C(=O)NS(=O)(=O)C5(C)CC5)C[C@H]4/C=C\CCCCC[C@H](NC(=O)O[C@H](C)C(C)C)C(=O)N2C1)O3` [Example 395, (2R)-3-methylbutan-2-yl [(2R,6S,12Z,13aS,14aR,16aS)-9′-methyl-14a-{[(1-methylcyclopropyl)sulfonyl]carbamoyl}-5,16-dioxo-5′-(trifluoromethyl)-1,1′,2′,5,6,7,8,9,10,11,13a,14,14a,15,16,16a-hexadecahydrospiro[cyclopropa[e]pyrrolo[1,2-a][1,4]diazacyclopentadecine-2,3′-pyrano[2,3-c]quinolin]-6-yl]carbamate] as the compound, how does the IC50 read?
Answer: 0.014 nM

Question: Which IC50 does the source give for `Cc1ccc2nc(C(F)(F)F)c3c(c2c1)CC[C@]1(C[C@H]2C(=O)N[C@]4(C(=O)NS(=O)(=O)C5(C)CC5)C[C@H]4/C=C\CCCCC[C@H](NC(=O)O[C@@H](C)C(C)C)C(=O)N2C1)O3` [Example 396, (2S)-3-methylbutan-2-yl [(2R,6S,12Z,13aS,14aR,16aS)-9′-methyl-14a-{[(1-methylcyclopropyl)sulfonyl]carbamoyl}-5,16-dioxo-5′-(trifluoromethyl)-1,1′,2′,5,6,7,8,9,10,11,13a,14,14a,15,16,16a-hexadecahydrospiro[cyclopropa[e]pyrrolo[1,2-a][1,4]diazacyclopentadecine-2,3′-pyrano[2,3-c]quinolin]-6-yl]carbamate] here?
Answer: 0.009 nM

Question: With `[2H]C([2H])(F)Oc1ccc2nc(C)c3c(c2c1)[C@H](F)C[C@]1(C[C@H]2C(=O)N[C@]4(C(=O)NS(=O)(=O)C5(C)CC5)C[C@H]4/C=C\CCCCC[C@H](NC(=O)OC(C)(C)C)C(=O)N2C1)O3` [Example 397, tert-butyl [(1′R,2S,6S,12Z,13aS,14aR,16aS)-1′-fluoro-9′-{[fluoro(^2H2)methyl]oxy}-5′-methyl-14a-{[(1-methylcyclopropyl)sulfonyl]carbamoyl}-5,16-dioxo-1,1′,2′,5,6,7,8,9,10,11,13a,14,14a,15,16,16a-hexadecahydrospiro[cyclopropa[e]pyrrolo[1,2-a][1,4]diazacyclopentadecine-2,3′-pyrano[2,3-c]quinolin]-6-yl]carbamate] as the compound, how does the IC50 read?
Answer: 0.006 nM
